Assay [1] addresses T1, CDK2 (Homo sapiens, UniProt P24941). Description: Phospho-Rb HTRF measurement in OVCAR3 cells (inhibition of CDK2). The note with it: pRB(S807/811) assay, 24 h compound treatment. The class given is cell-based. Also on record: High-Throughput Measurement of Cellular Endogenous CDK2; endogenous in cells; host or cells: OVCAR3. On the procedure: Phosphorylation of RB protein at S780 and S807/811 were measured using HTRF phospho-RB cellular kits (Cat #64RBS780PEG and 64RBS807PEG) from Cisbio.
On Day 1, OVCAR3 or KYSE520 cells were seeded into 96-well tissue-culture treated plates at 20,000 cells/well in 200 μL and incubated overnight at 37° C. in CO2 atmosphere. On Day 2, the cells were treated with test compounds at concentrations from 0.3 to 10,000 nM using HP D300 digital dispenser. Twenty-four hours after compound treatment, cell culture media was removed by flicking the plate and tapping the plate against clean paper towel. Immediately 30 μL 1× lysis buffer was supplemented from the kit and the plate was incubated at room temperature on shaker for 30 min. After homogenization by pipetting up and down, 8 μL cell lysate from 96-well cell culture plate was transferred to 384-well small volume white detection plate. 2 μL premixed detection solution was added and the plate was covered with sealer. To prepare the detection solution, d2 conjugated-phospho-RB antibody and Eu-cryptate conjugated phosphor-RB antibody were diluted into detection buffer following manufacturer's instruction. Detection plates were incubated for 4 h at room temperature and read on ClarioStar (BMG Labtech) in TR-FRET mode (665 nM and 620 nM). The TR-FRET ratio (665 nM/620 nM) was plotted against the compound concentration and normalized to DMSO controls. Half maximal inhibition concentration (IC50) values are calculated with a four-parameter logistic fit using GraphPad Prism (version 8; La Jolla, CA).
On the technique in general: TR-FRET usually uses a lanthanide donor and a delayed reading to cut background.

Assay [2] addresses T1, CDK2. Description: NanoBRET CDK2 engagement assay. In kind it is cell-based. Also on record: expressed in transfected cells. Particulars: OVCAR3 cells with stable CDK2-Luciferase vector, 24 hours treatment. On the procedure:
OVCAR3 cells with stable transfection of CDK2-Luciferase vector were seeded into 96-well plate at a density of 20,000 cells per well, 50 μL Opti-MEM medium supplemented with 1% FBS. Following morning, cells were treated with compounds of the disclosure, with starting concentration at 3 μM and ½ log dilution down to 0.3 nM for 24 hours at 37° C. DMSO treatment serves as control. Compound engagement was then measured using NanoBRE™ Kinase Kit from Promega (Part Number: CS1810C122, NanoBRET™ TE Kinase Kit #10, 1K) following manufacturer's instruction. For 24 hours treatment, tracer was added only for the last 2 hours. Briefly, 2.5 μL of complete 20× NanoBRET Tracer was added to the cells in suspension. Immediately prior to BRET measurements, prepare 3× Complete NanoBRET® Nano-Glo® Substrate in Opti-MEM without serum and phenol red. Without any delay, 25 μL per well of 3× Complete NanoBRET™ Nano-Glo® Substrate for a 96-well plate was added and mixed well. Signal was then read on a CLARIOstar® plate reader (measure donor emission (e.g., 450 nm) and acceptor emission (e.g., 610 nm or 630 nm) using a NanoBRET™-compatible luminometer. Target engagement was calculated with DMSO treatment as 100% signal, and IC50 was calculated by GraphPad Prism 9.
(In general: BRET reads energy transfer from a luciferase to a nearby fluorophore.)

On to `CN(C[C@H]1CN(CCCc2cccc3c2n(C)c(=O)n3C2CCC(=O)NC2=O)CCO1)S(=O)(=O)N1CCC(Nc2ncc3ccc(=O)n(C4CCCC4)c3n2)CC1` (stereo partly drawn) [Compound 24, 4-((8-cyclopentyl-7-oxo-7,8-dihydropyrido[2,3-d]pyrimidin-2-yl)amino)-N-(((2R)-4-(3-(1-(2,6-dioxopiperidin-3-yl)-3-methyl-2-oxo-2,3-dihydro-1H-benzo[d]imidazol-4-yl)propyl)morpholin-2-yl)methyl)-N-methylpiperidine-1-sulfonamide], for which the IC50 came to 194 nM on CDK2 [1] and 169 nM on CDK2 [2].
In the case of `O=C1CCC(N2Cc3c(OCCN4CC(Oc5cccc(S(=O)(=O)N6CCC(Nc7ncc8ccc(=O)n(C9CCCC9)c8n7)CC6)c5)C4)cccc3C2=O)C(=O)N1` (centres unmarked) [Compound 27, 3-(4-(2-(3-(3-((4-((8-cyclopentyl-7-oxo-7,8-dihydropyrido[2,3-d]pyrimidin-2-yl)amino)-piperidin-1-yl)sulfonyl)phenoxy)azetidin-1-yl)-ethoxy)-1-oxoisoindolin-2-yl)piperidine-2,6-dione], the concentration for half-maximal inhibition (IC50) was determined as 882 nM against CDK2 [1] and 334 nM on CDK2 [2].
The corresponding values for `O=C1CCC(N2Cc3c(OCCN4CCC(Oc5cccc(S(=O)(=O)N6CCC(Nc7ncc8ccc(=O)n(C9CCCC9)c8n7)CC6)c5)CC4)cccc3C2=O)C(=O)N1` (centres unmarked) [Compound 29, 3-(4-(2-(4-(3-((4-((8-cyclopentyl-7-oxo-7,8-dihydropyrido[2,3-d]pyrimidin-2-yl)amino)-piperidin-1-yl)sulfonyl)phenoxy)piperidin-1-yl)ethoxy)-1-oxoisoindolin-2-yl)piperidine-2,6-dione] are 216 nM and 426 nM.
The matching figures for `Cn1c(=O)n(C2CCC(=O)NC2=O)c2cccc(C3CCN(C4CCN(S(=O)(=O)N5CCC(Nc6ncc7ccc(=O)n(C8CCCC8)c7n6)CC5)CC4)CC3)c21` (centres unmarked) [Compound 31, 3-(4-(1′-((4-((8-cyclopentyl-7-oxo-7,8-dihydro-pyrido[2,3-d]pyrimidin-2-yl)amino)piperidin-1-yl)sulfonyl)-[1,4′-bipiperidin]-4-yl)-3-methyl-2-oxo-2,3-dihydro-1H-benzo[d]imidazol-1-yl)piperidine-2,6-dione]: 294 nM and 64 nM.
The corresponding values for `Cn1c(=O)n(C2CCC(=O)NC2=O)c2cccc(C3CCN(C4CC5(C4)CN(S(=O)(=O)N4CCC(Nc6ncc7ccc(=O)n(C8CCCC8)c7n6)CC4)C5)CC3)c21` (centres unmarked) [Compound 32, 3-(4-(1-(2-((4-((8-cyclopentyl-7-oxo-7,8-dihydro-pyrido[2,3-d]pyrimidin-2-yl)amino)piperidin-1-yl)sulfonyl)-2-azaspiro[3.3]heptan-6-yl)piperidin-4-yl)-3-methyl-2-oxo-2,3-dihydro-1H-benzo[d]imidazol-1-yl)piperidine-2,6-dione] are 317 nM and 59 nM.
As for `Cn1c(=O)n(C2CCC(=O)NC2=O)c2cccc(C3CN(Cc4cccc(S(=O)(=O)N5CCC(Nc6ncc7ccc(=O)n(C8CCCC8)c7n6)CC5)c4)C3)c21` (centres unmarked) [Compound 40, 3-(4-(1-(3-((4-((8-cyclopentyl-7-oxo-7,8-dihydropyrido[2,3-d]pyrimidin-2-yl)amino)piperidin-1-yl)sulfonyl)benzyl)azetidin-3-yl)-3-methyl-2-oxo-2,3-dihydro-1H-benzo[d]imidazol-1-yl)piperidine-2,6-dione], the 50% inhibitory concentration (IC50) at CDK2 [1] was determined as 135 nM; against CDK2 [2], 297 nM.
With `O=C1CCC(N2C(=O)c3cc(F)c(N4CCN(Cc5cc(F)cc(S(=O)(=O)N6CCC(Nc7ncc8ccc(=O)n(C9CCCC9)c8n7)CC6)c5)CC4)cc3C2=O)C(=O)N1` (centres unmarked) [Compound 43, 5-(4-(3-((4-((8-cyclopentyl-7-oxo-7,8-dihydro-pyrido[2,3-d]pyrimidin-2-yl)amino)piperidin-1-yl)sulfonyl)-5-fluorobenzyl)piperazin-1-yl)-2-(2,6-dioxopiperidin-3-yl)-6-fluoroisoindoline-1,3-dione], the IC50 was 465 nM against CDK2 [1] and 401 nM on CDK2 [2].
The corresponding values for `O=C1CCC(N2C(=O)c3cc(F)c(N4CCN(Cc5cccc(S(=O)(=O)N6CCC(Nc7ncc8cc(C(F)F)c(=O)n(C9CCCC9)c8n7)CC6)c5)CC4)cc3C2=O)C(=O)N1` (centres unmarked) [Compound 45, 5-(4-(3-((4-((8-cyclopentyl-6-(difluoromethyl)-7-oxo-7,8-dihydropyrido[2,3-d]pyrimidin-2-yl)-amino)piperidin-1-yl)sulfonyl)-benzyl)piperazin-1-yl)-2-(2,6-dioxopiperidin-3-yl)-6-fluoro-isoindoline-1,3-dione] are 267 nM and 378 nM.
On to `N#Cc1cc2cnc(NC3CCN(S(=O)(=O)c4cccc(CN5CCN(c6cc7c(cc6F)C(=O)N(C6CCC(=O)NC6=O)C7=O)CC5)c4)CC3)nc2n(C2CCCC2)c1=O` (centres unmarked) [Compound 46, 8-cyclopentyl-2-((1-((3-((4-(2-(2,6-dioxopiperidin-3-yl)-6-fluoro-1,3-dioxoisoindolin-5-yl)piperazin-1-yl)methyl)phenyl)sulfonyl)piperidin-4-yl)-amino)-7-oxo-7,8-dihydropyrido[2,3-d]-pyrimidine-6-carbonitrile], for which the values for the IC50 at CDK2 [1] and against CDK2 [2] were 2920 nM and 2160 nM, respectively.
The corresponding values for `O=C1CCC(N2C(=O)c3cc(F)c(N4C5CCC4CN(Cc4cccc(S(=O)(=O)N6CCC(Nc7ncc8ccc(=O)n(C9CCCC9)c8n7)CC6)c4)C5)cc3C2=O)C(=O)N1` (centres unmarked) [Compound 47, 5-(3-(3-((4-((8-cyclopentyl-7-oxo-7,8-dihydro-pyrido[2,3-d]pyrimidin-2-yl)amino)piperidin-1-yl)sulfonyl)benzyl)-3,8-diazabicyclo[3.2.1]octan-8-yl)-2-(2,6-dioxopiperidin-3-yl)-6-fluoro-isoindoline-1,3-dione] are 4030 nM and 590 nM.
Regarding `O=C1CCC(N2C(=O)c3cc(F)c(N4CC5CCC(C4)N5Cc4cccc(S(=O)(=O)N5CCC(Nc6ncc7ccc(=O)n(C8CCCC8)c7n6)CC5)c4)cc3C2=O)C(=O)N1` (centres unmarked) [Compound 49, 5-(8-(3-((4-((8-cyclopentyl-7-oxo-7,8-dihydro-pyrido[2,3-d]pyrimidin-2-yl)amino)piperidin-1-yl)sulfonyl)benzyl)-3,8-diazabicyclo[3.2.1]octan-3-yl)-2-(2,6-dioxopiperidin-3-yl)-6-fluoroi-soindoline-1,3-dione], the IC50 turned out to be 836 nM against CDK2 [1] and 272 nM on CDK2 [2].
The matching figures for `O=C1CCC(N2Cc3cc(N4C5CCC4CN(Cc4cccc(S(=O)(=O)N6CCC(Nc7ncc8ccc(=O)n(C9CCCC9)c8n7)CC6)c4)C5)ccc3C2=O)C(=O)N1` (centres unmarked) [Compound 52, 3-(5-(3-(3-((4-((8-cyclopentyl-7-oxo-7,8-dihydropyrido[2,3-d]pyrimidin-2-yl)amino)-piperidin-1-yl)sulfonyl)benzyl)-3,8-diazabicyclo-[3.2.1]octan-8-yl)-1-oxoisoindolin-2-yl)piperidine-2,6-dione]: 1420 nM and 499 nM.
The matching figures for `CO[C@H]1CN(S(=O)(=O)c2cccc(CN3CCN(c4cc5c(cc4F)C(=O)N(C4CCC(=O)NC4=O)C5=O)CC3)c2)CC[C@@H]1Nc1ncc2ccc(=O)n(C3CCCC3)c2n1` (stereo partly drawn) [Compound 64, 5-(4-(3-(((3S,4S)-4-((8-cyclopentyl-7-oxo-7,8-dihydropyrido[2,3-d]pyrimidin-2-yl)amino)-3-methoxypiperidin-1-yl)sulfonyl)benzyl)piperazin-1-yl)-2-(2,6-dioxopiperidin-3-yl)-6-fluoro-isoindoline-1,3-dione]: 7940 nM and 3040 nM.

As usually defined, the IC50 is the concentration that gives 50% inhibition. A high value points to weaker potency in that assay.

Source of the values: patent US20250018049A1, “COMPOUNDS FOR DEGRADING CYCLIN-DEPENDENT KINASE 2 VIA UBIQUITIN PROTEOSOME PATHWAY” (NIKANG THERAPEUTICS, INC., priority 2020, published 2025).
